Experimental data from patent publication US9376420B2 (YUHAN CORPORATION, priority 2012, dated 2016).

Molecular target: T1, human LXRβ (Homo sapiens, UniProt P55055)
T1 construct: expressed in transfected cells; host or cells: HEK293 cells (ATCC CRL-1573), transient transfection with pFA-hLXRβ/GAL4 and pUAS
T1 sequence (P55055 222-460 limits assumed): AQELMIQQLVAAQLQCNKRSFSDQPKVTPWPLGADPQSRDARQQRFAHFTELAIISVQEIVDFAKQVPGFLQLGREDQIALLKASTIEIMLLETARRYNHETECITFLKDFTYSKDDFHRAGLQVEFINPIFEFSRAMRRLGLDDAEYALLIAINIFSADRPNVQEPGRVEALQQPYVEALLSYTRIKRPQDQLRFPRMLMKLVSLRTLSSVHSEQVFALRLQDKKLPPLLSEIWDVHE
Assay: Assay for Transcriptional Activity of LXRβ (GAL4-hLXRβ LBD luciferase reporter, transient transfection)
Format: cell-based
Conditions: HEK293 cells transfected with pFA-hLXRβ/GAL4 and pUAS, 24 hours; for Emax: fold value in comparison with the control (DMSO-treated group); for EC50: increase of transcriptional activity of LXRβ, average of three independent tests
How it was run: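 EC50 values, averaged over three independent runs, come from a four-parameter fit of 9-point half-log curves spanning 0.01–50 μM. Luciferase output was read in lysed HEK293 cells 24 h after dosing at 37 °C, following transient transfection with a GAL4-human LXRβ LBD fusion plus GAL4-responsive reporter.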

Emax [fold] | EC50 [nM] | Molecule
53 | 800 | O=S(=O)(C1CC1)N1CCCN(c2ccc(C3CC(C(O)(C(F)(F)F)C(F)(F)F)=NN3c3ccccc3Cl)cc2)CC1 (stereo not shown) [Example 325, 1-(2-chloro-phenyl)-5-[4-(4-cyclopropanesulfonyl-homopiperazin-1-yl)-phenyl]-3-[di-(trifluoromethyl)-hydroxy-methyl]-4,5-dihydro-1H-pyrazole]
81 | 617 | COc1ccc(-c2ccc(C3CC(C(O)(C(F)(F)F)C(F)(F)F)=NN3c3ccccc3Cl)c(F)c2)cn1 (stereo not shown) [Example 343, 1-(2-chloro-phenyl)-5-[2-fluoro-4-(6-methoxy-pyridin-3-yl)-phenyl]-3-[di-(trifluoromethyl)-hydroxy-methyl]-4,5-dihydro-1H-pyrazole]
25 | 4470 | CN(CCO)S(=O)(=O)c1cccc(-c2cccc(N3N=C(C(F)(F)C(F)(F)F)CC3c3ccc(F)cc3F)c2)c1 (stereo not shown) [Example 210, 5-(2,4-difluoro-phenyl)-1-{3′-[(2-hydroxy-ethyl)-methyl-sulfamoyl]-biphenyl-3-yl}-3-pentafluoroethyl-4,5-dihydro-1H-pyrazole]
63 | 31 | O=C(c1ccccc1)N1CC=C(c2cccc(C3CC(C(O)(C(F)(F)F)C(F)(F)F)=NN3c3ccccc3Cl)c2)CC1 (stereo not shown) [Example 235, 5-[3-(1-benzoyl-1,2,3,6-tetrahydropyridin-4-yl)-phenyl]-1-(2-chloro-phenyl)-3-[di-(trifluoromethyl)-hydroxy-methyl]-4,5-dihydro-1H-pyrazole]
88 | 452 | OC(C1=NN(c2ccccc2Cl)C(c2ccc(-c3ccc(F)nc3)cc2)C1)(C(F)(F)F)C(F)(F)F (stereo not shown) [Example 268, 1-(2-chloro-phenyl)-5-[4-(6-fluoro-pyridin-3-yl)-phenyl]-3-[di-(trifluoromethyl)-hydroxy-methyl]-4,5-dihydro-1H-pyrazole]
56 | 1120 | CCS(=O)(=O)N1CCN(c2ccc(C3CC(C(O)(C(F)(F)F)C(F)(F)F)=NN3c3ccccc3Cl)cc2)CC1 (stereo not shown) [Example 313, 1-(2-chloro-phenyl)-5-[4-(4-ethanesulfonyl-piperazin-1-yl)-phenyl]-3-[di-(trifluoromethyl)-hydroxy-methyl]-4,5-dihydro-1H-pyrazole]
125 | 193 | CSc1cccc(-c2ccc(C3CC(C(O)(C(F)(F)F)C(F)(F)F)=NN3c3ccccc3Cl)s2)c1 (stereo not shown) [Example 414, 1-(2-chloro-phenyl)-5-{5-[3-(methylsulfanyl)-phenyl]-thiophen-2-yl}-3-[di-(trifluoromethyl)-hydroxy-methyl]-4,5-dihydro-1H-pyrazole]
50 | 448 | OC(C1=NN(c2ccc(F)cc2F)C(c2ccc(-c3cncc(F)c3)cc2)C1)(C(F)(F)F)C(F)(F)F (stereo not shown) [Example 381, 1-(2,4-difluoro-phenyl)-5-[4-(5-fluoro-pyridin-3-yl)-phenyl)-3-[di-(trifluoromethyl)-hydroxy-methyl]-4,5-dihydro-1H-pyrazole]
83 | 0.4 | CN(CCCS(=O)(=O)c1cccc(-c2ccc(C3CC(C(O)(C(F)(F)F)C(F)(F)F)=NN3c3ccc(F)cc3F)cc2)c1)C(=O)OC(C)(C)C (stereo not shown) [Example 395, 5-{3′-[3-(N-BOC-N-methyl-amino)-propane-1-sulfonyl]-biphenyl-4-yl}-1-(2,4-difluoro-phenyl)-3-(di-(trifluoromethyl)-hydroxy-methyl)-4,5-dihydro-1H-pyrazole]
72 | 21 | O=C(CCC1CCCC1)N1CC=C(c2cccc(C3CC(C(O)(C(F)(F)F)C(F)(F)F)=NN3c3ccccc3Cl)c2)CC1 (stereo not shown) [Example 233, 1-(2-chloro-phenyl)-5-{3-[1-(3-cyclopentyl-propionyl)-1,2,3,6-tetrahydropyridin-4-yl]-phenyl}-3-[di-(trifluoromethyl)-hydroxy-methyl]-4,5-dihydro-1H-pyrazole]
80 | – | CS(=O)(=O)c1ccc(-c2ccc(C3CC(C(O)(C(F)(F)F)C(F)(F)F)=NN3c3ccccc3Cl)s2)cn1 (stereo not shown) [Example 420, 1-(2-chloro-phenyl)-5-{5-[6-(methylsulfonyl)-pyridin-3-yl]-thiophen-2-yl}-3-[di-(trifluoromethyl)-hydroxy-methyl]-4,5-dihydro-1H-pyrazole]
50 | 83 | Cc1cc(-n2cnnn2)ncc1-c1ccc(C2CC(C(O)(C(F)(F)F)C(F)(F)F)=NN2c2ccc(F)cc2F)cc1 (stereo not shown) [Example 394, 1-(2,4-difluoro-phenyl)-5-{4-[4-methyl-6-(tetrazol-1-yl)-pyridin-3-yl]-phenyl}-3-[di-(trifluoromethyl)-hydroxy-methyl]-4,5-dihydro-1H-pyrazole]
60 | 771 | OC(C1=NN(c2ccc(F)cc2F)C(c2ccc(-c3ccccn3)cc2)C1)(C(F)(F)F)C(F)(F)F (stereo not shown) [Example 385, 1-(2,4-difluoro-phenyl)-5-[4-pyridin-2-yl-phenyl]-3-[di-(trifluoromethyl)-hydroxy-methyl]-4,5-dihydro-1H-pyrazole]
100 | 298 | CS(=O)(=O)c1ccc(-c2ccc(C3CC(C(O)(C(F)(F)F)C(F)(F)F)=NN3c3ccccc3Cl)cc2)cc1 (stereo not shown) [Example 244, 1-(2-chloro-phenyl)-5-[4′-(methanesulfonyl)-biphenyl-4-yl]-3-[di-(trifluoromethyl)-hydroxy-methyl]-4,5-dihydro-1H-pyrazole]
73 | 4900 | Fc1ccc(N2N=C(C(F)(F)C(F)(F)F)CC2c2cccc(-c3ccc(F)nc3)c2)c(F)c1 (stereo not shown) [Example 55, 1-(2,4-difluoro-phenyl)-5-[3-(6-fluoro-pyridin-3-yl)-phenyl]-3-pentafluoroethyl-4,5-dihydro-1H-pyrazole]
53 | 635 | CCCS(=O)(=O)N1CC=C(c2ccc(C3CC(C(O)(C(F)(F)F)C(F)(F)F)=NN3c3ccccc3Cl)cc2)CC1 (stereo not shown) [Example 300, 1-(2-chloro-phenyl)-5-{4-[1-(propane-1-sulfonyl)-1,2,3,6-tetrahydropyridin-4-yl]-phenyl}-3-[di-(trifluoromethyl)-hydroxy-methyl]-4,5-dihydro-1H-pyrazole]
83 | 145 | CN(C)S(=O)(=O)c1ccc(-c2ccc(C3CC(C(O)(C(F)(F)F)C(F)(F)F)=NN3c3ccc(F)cc3F)cc2)cc1 (stereo not shown) [Example 396, 1-(2,4-difluoro-phenyl)-5-(4′-dimethylsulfamoyl-biphenyl-4-yl)-3-(di-(trifluoromethyl)-hydroxy-methyl)-4,5-dihydro-1H-pyrazole]
39 | 4770 | Fc1ccc(N2N=C(C(F)(F)C(F)(F)F)CC2c2cccc(-c3cncnc3)c2)c(F)c1 (stereo not shown) [Example 57, 1-(2,4-difluoro-phenyl)-3-pentafluoroethyl-5-[3-(5-pyrimidyl)-phenyl]-4,5-dihydro-1H-pyrazole]
66 | 8570 | CSc1ccc(-c2cccc(C3CC(C(F)(F)C(F)(F)F)=NN3c3ccc(F)cc3F)c2)cc1 (stereo not shown) [Example 30, 1-(2,4-difluoro-phenyl)-5-(4′-methylsulfanyl-biphenyl-3-yl)-3-pentafluoroethyl-4,5-dihydro-1H-pyrazole]
46 | 747 | O=Cc1ccc(-c2cccc(C3CC(C(F)(F)C(F)(F)F)=NN3c3ccc(F)cc3F)c2)nc1 (stereo not shown) [Example 79, 1-(2,4-difluoro-phenyl)-5-[3-(5-formyl-pyridin-2-yl)-phenyl]-3-pentafluoroethyl-4,5-dihydro-1H-pyrazole]
35 | 170 | CN(CCO)S(=O)(=O)c1ccc(-c2ccc(C3CC(C(O)(C(F)(F)F)C(F)(F)F)=NN3c3ccc(F)cc3F)cc2)cc1 (stereo not shown) [Example 386, 1-(2,4-difluoro-phenyl)-5-{4′-[(2-hydroxy-ethyl)-methyl-sulfamoyl]-biphenyl-4-yl}-3-[di-(trifluoromethyl)-hydroxy-methyl]-4,5-dihydro-1H-pyrazole]
81 | 344 | CS(=O)(=O)c1ccc(-c2cccc(C3CC(C(F)(F)C(F)(F)F)=NN3c3ccc(F)cc3F)c2)cn1 (stereo not shown) [Example 92, 1-(2,4-difluoro-phenyl)-5-[3-(6-methanesulfonyl-pyridin-3-yl)-phenyl]-3-pentafluoroethyl-4,5-dihydro-1H-pyrazole]
38 | 379 | CS(=O)(=O)N1CC=C(c2ccc(C3CC(C(O)(C(F)(F)F)C(F)(F)F)=NN3c3ccc(F)cc3F)cc2)CC1 (stereo not shown) [Example 400, 1-(2,4-difluoro-phenyl)-5-[4-(1-methanesulfonyl-1,2,3,6-tetrahydropyridin-4-yl)-phenyl]-3-[di-(trifluoromethyl)-hydroxy-methyl]-4,5-dihydro-1H-pyrazole]

Molecule | Emax [fold] | EC50 [nM]
Cl.OC(C1=NN(c2ccccc2Cl)C(c2ccc(C3=CCNCC3)s2)C1)(C(F)(F)F)C(F)(F)F (stereo not shown) [Example 417, 1-(2-chloro-phenyl)-5-[5-(1,2,3,6-tetrahydropyridin-4-yl)-thiophen-2-yl]-3-[di-(trifluoromethyl)-hydroxy-methyl]-4,5-dihydro-1H-pyrazole hydrochloride] | 58 | 1030
1-(2,4-difluoro-phenyl)-5-(4-fluoro-3′-methanesulfonyl-biphenyl-3-yl)-3-pentafluoroethyl-4,5-dihydroxy-1H-pyrazole [Example 141] | 127 | 18
